Results: paper PMC8179358, “An explicitly designed paratope of amyloid-β prevents neuronal apoptosis in vitro and hippocampal damage in rat brain” (Chemical Science, 2020)
*1 amine or outer side, *2 acyl side, *3 side chain or, on linkers, in order; H or OH if unused. Where a SMILES comes first, the peptide text is derived from it. Bridges are numbered along the chain shown (N, C = ends). Roman numbers before positions name the chains, in order. [ ]: non-standard residue; d: D form. X1 = O=C(CCCCC(=O)[*:2])NCCCOCCOCCOCCCNC(=O)CCC(=O)[*:1]; NMeF = CN[C@@H](Cc1ccccc1)C(=O)O; NMeL = CN[C@@H](CC(C)C)C(=O)O; NMeV = CN[C@H](C(=O)O)C(C)C

Assays:
SH-SY5Y cells [1] = experiment: MTT assay, self-toxicity of SP1; assay type: cell-based, human; conditions: 0.5-10 μM, 24 h
Description: 1.3. Methods for in vitro cell-based experiments
The human neuroblastoma cell line SH-SY5Y was obtained from the National Centre for Cell Science (NCCS, Pune, India). The cells were grown in DMEM, and Ham’s F12 nutrient mixture (DMEM/F12; 1:1) supplemented with 10% fetal bovine serum (FBS; Gibco, USA), 50 U/ml penicillin, 100 μg/ml streptomycin and incubated in a humidified atmosphere of 5% CO2 at 37°C. All experiments were carried […]
Each experiment was performed
Methylthiazol tetrazolium (MTT) reduction assay was used to measure the viability of cells.10 The SH-SY5Y cells were seeded at a density of 1.5 × 10^4 cells/well in a 96 well plate. To assess self-toxicity, cells […]
period 20µl of MTT reagent (5mg/ml in DPBS) was added to each well and incubated in a humidified atmosphere of 5% CO2 at 37°C for 4h. Formazan crystals (purple) are formed by the metabolically active cells by cleaving the yellow tetrazolium salt. After the incubation period, the MTT solution was aspirated, and 150µL of dimethyl sulfoxide (DMSO) was added to each well to dissolve the formazan precipitate.

SH-SY5Y cells [2] = experiment: Intracellular Ca2+ (Fura-2AM); assay type: cell-based, human; conditions: Aβ40 10 μM, compared to untreated cells
Source text: Condensed or fragmented nuclear bodies characterize the distinctive nature of apoptotic cells. […] Dyshomeostasis of Ca^2+ is also responsible for the increased production of Aβ peptides, by which a degenerative feed-forward cycle is activated, resulting in accelerated apoptosis, synaptic dysfunction, and memory impairment.[49] […]
e. Measurement of intracellular calcium (Ca 2+)
Ca2+sensitive dye Fura-2AM was used to measure free intracellular Ca2+level in SH-SY5Y cell suspension by the previously described method.12 Following treatment with the respective drug, Fura-2 AM (Cayman, USA) at a concentration of 5 µM was added to the culture medium and incubated at 37°C for 45 min. Next, Krebs-Ringer-HEPES (KRH) buffer (135mM NaCl, 5mM KCl, 1mM MgSO4, 0.4mM KH2PO4, 1mM CaCl2, 5.5mM glucose, 20mM HEPES, pH 7.4) was used to wash each plate twice containing (1×10^6cells). Fluorescent microplate reader (FLX 800, Biotek, USA) was used to measure the fluorescence intensity with an excitation and emission spectra of […], respectively. Results are Mean±SEM of quadruplicate measurements from three separate experiments and expressed in the increase in percent relative fluorescent unit (RFU) relative to the baseline reading.
Western blot analysis was performed to measure Bax, Bcl-2, cleaved Caspase 9 and cleaved Caspase 3, pro and anti-apoptotic proteins expression. […]

## CC(C)C[C@H](NC(=O)CNC(=O)CCC(=O)NCCCOCCOCCOCCCNC(=O)CCCCC(=O)NCC(=O)N(C)[C@@H](CC(C)C)C(=O)N[C@H](C(=O)N(C)[C@@H](Cc1ccccc1)C(=O)N[C@@H](Cc1ccccc1)C(=O)N[C@@H](C)C(N)=O)C(C)C)C(=O)N(C)[C@H](C(=O)N[C@@H](Cc1ccccc1)C(=O)N(C)[C@@H](Cc1ccccc1)C(=O)N[C@@H](C)C(N)=O)C(C)C [SP1] (I: GL[NMeV]F[NMeF]A-NH2 / II: G[NMeL]V[NMeF]FA-NH2; linker I:N-II:N via X1)
SH-SY5Y cells [1]
  cytotoxicity of SP1 alone: did not observe any discernible cytotoxicity even at the maximum concentrations (10 μM)

## Aβ40: commercially available Aβ40 peptide
SH-SY5Y cells [2]
  intracellular Ca2+ level, Aβ40 alone: significantly elevated intracellular Ca^2+ levels
